According to patent US12077503B2, “Substituted cyclic amides and their use as herbicides” (FMC CORPORATION, priority 2015, dated 2024):

Columns and labels:
Assay type in all cases: in vivo
[1] = test system: redroot pigweed (Amaranthus retroflexus); assay: Test G Post-Emergence Protocol; conditions: Amaranthus retroflexus, post-emergence, 312 h, read-out: Pigweed, Redroot damage rating; for pest or weed control at 15.625 g/ha: 15.625 g ai/ha, evaluated after 13 days (100=total damage to plant; 0=no damage to plant); for pest or weed control at 62.5 g/ha: 62.5 g ai/ha; for pest or weed control at 62.5 g/ha / pest or weed control at 250 g/ha: evaluated after 13 days, 100=total damage to plant, 0=no damage to plant; for pest or weed control at 250 g/ha: 250 g ai/ha
In short: (§1)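 Seedlings grown 8 days in soil in a glasshouse (24/16 °C day/night, 14 h light, 65% humidity) were sprayed post-emergence with compound in acetone/water 50:50 plus 0.5% Tween 20 at 15.625, 62.5 or 250 g/ha. Damage was scored after 13 days on a 0–100 scale (100 = total damage).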

[2] = test system: giant foxtail (Setaria faberi); assay: Test G Post-Emergence Protocol; conditions: Setaria faberi, post-emergence, 312 h, read-out: Foxtail, Giant damage rating; for pest or weed control at 15.625 g/ha: 15.625 g ai/ha, evaluated after 13 days (100=total damage to plant; 0=no damage to plant); for pest or weed control at 62.5 g/ha: 62.5 g ai/ha; for pest or weed control at 62.5 g/ha / pest or weed control at 250 g/ha: evaluated after 13 days, 100=total damage to plant, 0=no damage to plant; for pest or weed control at 250 g/ha: 250 g ai/ha
In short: as §1

[3] = test system: barnyardgrass (Echinochloa crus-galli); assay: Test G Post-Emergence Protocol; conditions: Echinochloa crus-galli, post-emergence, 312 h, read-out: Barnyardgrass damage rating; for pest or weed control at 15.625 g/ha: 15.625 g ai/ha, evaluated after 13 days (100=total damage to plant; 0=no damage to plant); for pest or weed control at 62.5 g/ha: 62.5 g ai/ha; for pest or weed control at 62.5 g/ha / pest or weed control at 250 g/ha: evaluated after 13 days, 100=total damage to plant, 0=no damage to plant; for pest or weed control at 250 g/ha: 250 g ai/ha
In short: as §1

[4] = test system: velvetleaf (Abutilon theophrasti); assay: Test G Post-Emergence Protocol; conditions: Abutilon theophrasti, post-emergence, 312 h, read-out: Velvetleaf damage rating; for pest or weed control at 15.625 g/ha: 15.625 g ai/ha, evaluated after 13 days (100=total damage to plant; 0=no damage to plant); for pest or weed control at 62.5 g/ha: 62.5 g ai/ha; for pest or weed control at 62.5 g/ha / pest or weed control at 250 g/ha: evaluated after 13 days, 100=total damage to plant, 0=no damage to plant; for pest or weed control at 250 g/ha: 250 g ai/ha
In short: as §1

[5] = test system: ivy-leaved morning glory (Ipomoea hederacea); assay: Test G Post-Emergence Protocol; conditions: Ipomoea, post-emergence, 312 h, read-out: Morningglory, Ivy-leaved damage rating; for pest or weed control at 15.625 g/ha: 15.625 g ai/ha, evaluated after 13 days (100=total damage to plant; 0=no damage to plant); for pest or weed control at 62.5 g/ha: 62.5 g ai/ha; for pest or weed control at 62.5 g/ha / pest or weed control at 250 g/ha: evaluated after 13 days, 100=total damage to plant, 0=no damage to plant; for pest or weed control at 250 g/ha: 250 g ai/ha
In short: as §1

corn (Zea mays) [6] = assay: Test G Post-Emergence Protocol; conditions: Zea mays, post-emergence, 312 h, read-out: Corn damage rating; for plant injury at 15.625 g/ha: 15.625 g ai/ha, evaluated after 13 days (100=total damage to plant; 0=no damage to plant); for plant injury at 62.5 g/ha: 62.5 g ai/ha; for plant injury at 62.5 g/ha / plant injury at 250 g/ha: evaluated after 13 days, 100=total damage to plant, 0=no damage to plant; for plant injury at 250 g/ha: 250 g ai/ha
In short: as §1

[7] = test system: redroot pigweed (Amaranthus retroflexus); assay: Test G Pre-Emergence Protocol; conditions: Amaranthus retroflexus, pre-emergence, 312 h, evaluated after 13 days; for pest or weed control at 15.625 g/ha: 15.625 g ai/ha; for pest or weed control at 15.625 g/ha / pest or weed control at 250 g/ha: read-out: Pigweed, Redroot damage rating (100=total damage to plant; 0=no damage to plant); for pest or weed control at 62.5 g/ha: 62.5 g ai/ha, 100=total damage to plant, 0=no damage to plant, read-out: Pigweed, Redroot damage rating; for pest or weed control at 250 g/ha: 250 g ai/ha
In short: (§2)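 Under a 24/16° C day/night regime with 14 h light and 65% humidity, sown pots were sprayed after one day with compound (15.625, 62.5 or 250 g/ha; 50:50 acetone/water, 0.5% Tween 20). Damage was assessed visually 13 days later, 0 to 100.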

[8] = test system: giant foxtail (Setaria faberi); assay: Test G Pre-Emergence Protocol; conditions: Setaria faberi, pre-emergence, 312 h, evaluated after 13 days; for pest or weed control at 15.625 g/ha: 15.625 g ai/ha; for pest or weed control at 15.625 g/ha / pest or weed control at 250 g/ha: read-out: Foxtail, Giant damage rating (100=total damage to plant; 0=no damage to plant); for pest or weed control at 62.5 g/ha: 62.5 g ai/ha, 100=total damage to plant, 0=no damage to plant, read-out: Foxtail, Giant damage rating; for pest or weed control at 250 g/ha: 250 g ai/ha
In short: as §2

[9] = test system: barnyardgrass (Echinochloa crus-galli); assay: Test G Pre-Emergence Protocol; conditions: Echinochloa crus-galli, pre-emergence, 312 h, evaluated after 13 days; for pest or weed control at 15.625 g/ha: 15.625 g ai/ha; for pest or weed control at 15.625 g/ha / pest or weed control at 250 g/ha: read-out: Barnyardgrass damage rating (100=total damage to plant; 0=no damage to plant); for pest or weed control at 62.5 g/ha: 62.5 g ai/ha, 100=total damage to plant, 0=no damage to plant, read-out: Barnyardgrass damage rating; for pest or weed control at 250 g/ha: 250 g ai/ha
In short: as §2

[10] = test system: velvetleaf (Abutilon theophrasti); assay: Test G Pre-Emergence Protocol; conditions: Abutilon theophrasti, pre-emergence, 312 h, evaluated after 13 days; for pest or weed control at 15.625 g/ha: 15.625 g ai/ha; for pest or weed control at 15.625 g/ha / pest or weed control at 250 g/ha: read-out: Velvetleaf damage rating (100=total damage to plant; 0=no damage to plant); for pest or weed control at 62.5 g/ha: 62.5 g ai/ha, 100=total damage to plant, 0=no damage to plant, read-out: Velvetleaf damage rating; for pest or weed control at 250 g/ha: 250 g ai/ha
In short: as §2

[11] = test system: ivy-leaved morning glory (Ipomoea hederacea); assay: Test G Pre-Emergence Protocol; conditions: Ipomoea, pre-emergence, 312 h, evaluated after 13 days; for pest or weed control at 15.625 g/ha: 15.625 g ai/ha; for pest or weed control at 15.625 g/ha / pest or weed control at 250 g/ha: read-out: Morningglory, Ivy-leaved damage rating (100=total damage to plant; 0=no damage to plant); for pest or weed control at 62.5 g/ha: 62.5 g ai/ha, 100=total damage to plant, 0=no damage to plant, read-out: Morningglory, Ivy-leaved damage rating; for pest or weed control at 250 g/ha: 250 g ai/ha
In short: as §2

corn (Zea mays) [12] = assay: Test G Pre-Emergence Protocol; conditions: Zea mays, pre-emergence, 312 h, evaluated after 13 days; for plant injury at 15.625 g/ha: 15.625 g ai/ha; for plant injury at 15.625 g/ha / plant injury at 250 g/ha: read-out: Corn damage rating (100=total damage to plant; 0=no damage to plant); for plant injury at 62.5 g/ha: 62.5 g ai/ha, 100=total damage to plant, 0=no damage to plant, read-out: Corn damage rating; for plant injury at 250 g/ha: 250 g ai/ha
In short: as §2

SMILES | pest or weed control at 15.625 g/ha [1] [%] | pest or weed control at 62.5 g/ha [1] [%] | pest or weed control at 250 g/ha [1] [%] | pest or weed control at 15.625 g/ha [2] [%] | pest or weed control at 62.5 g/ha [2] [%] | pest or weed control at 250 g/ha [2] [%] | pest or weed control at 15.625 g/ha [3] [%] | pest or weed control at 62.5 g/ha [3] [%] | pest or weed control at 250 g/ha [3] [%] | pest or weed control at 15.625 g/ha [4] [%] | pest or weed control at 62.5 g/ha [4] [%] | pest or weed control at 250 g/ha [4] [%] | pest or weed control at 15.625 g/ha [5] [%] | pest or weed control at 62.5 g/ha [5] [%] | pest or weed control at 250 g/ha [5] [%] | plant injury at 15.625 g/ha (corn (Zea mays) [6]) [%] | plant injury at 62.5 g/ha (corn (Zea mays) [6]) [%] | plant injury at 250 g/ha (corn (Zea mays) [6]) [%] | pest or weed control at 15.625 g/ha [7] [%] | pest or weed control at 62.5 g/ha [7] [%] | other results
CCOc1c(Cl)cc(C2CN(C)C(=O)C2C(=O)Nc2cccc(F)c2F)cc1OC (stereo not drawn) [Compound 1721] | 0 | 0 | 0 | 0 | 50 | 80 | 0 | 30 | 80 | 0 | 0 | 0 | 0 | 40 | 70 | 0 | 10 | 10 | 0 | 0 | pest or weed control at 250 g/ha [7]: 0%; pest or weed control at 15.625 g/ha [8]: 30%; pest or weed control at 62.5 g/ha [8]: 60%; pest or weed control at 250 g/ha [8]: 90%; pest or weed control at 15.625 g/ha [9]: 0%; pest or weed control at 62.5 g/ha [9]: 50%; pest or weed control at 250 g/ha [9]: 80%; pest or weed control at 15.625 g/ha [10]: 0%; pest or weed control at 62.5 g/ha [10]: 0%; pest or weed control at 250 g/ha [10]: 0%; pest or weed control at 15.625 g/ha [11]: 0%; pest or weed control at 62.5 g/ha [11]: 0%; pest or weed control at 250 g/ha [11]: 0%; plant injury at 15.625 g/ha (corn (Zea mays) [12]): 10%; plant injury at 62.5 g/ha (corn (Zea mays) [12]): 0%; plant injury at 250 g/ha (corn (Zea mays) [12]): 0%
CN1C[C@H](c2ccc(C(F)(F)F)cc2)[C@@H](C(=O)Nc2cccc3c2C(=O)OC3)C1=O (racemic) [Compound 1669] | 0 | 0 | 30 | 30 | 50 | 80 | 0 | 30 | 70 | 0 | 0 | 0 | 0 | 20 | 60 | 10 | 0 | 0 | 0 | 10 | pest or weed control at 250 g/ha [7]: 20%; pest or weed control at 15.625 g/ha [8]: 0%; pest or weed control at 62.5 g/ha [8]: 20%; pest or weed control at 250 g/ha [8]: 60%; pest or weed control at 15.625 g/ha [9]: 0%; pest or weed control at 62.5 g/ha [9]: 0%; pest or weed control at 250 g/ha [9]: 10%; pest or weed control at 15.625 g/ha [10]: 0%; pest or weed control at 62.5 g/ha [10]: 0%; pest or weed control at 250 g/ha [10]: 10%; pest or weed control at 15.625 g/ha [11]: 0%; pest or weed control at 62.5 g/ha [11]: 0%; pest or weed control at 250 g/ha [11]: 10%; plant injury at 15.625 g/ha (corn (Zea mays) [12]): 0%; plant injury at 62.5 g/ha (corn (Zea mays) [12]): 0%; plant injury at 250 g/ha (corn (Zea mays) [12]): 0%
